Earlier results as cited in US20090088424A1, “METHODS AND COMPOSITIONS FOR CONTROLLING THE BIOAVAILABILITY OF POORLY SOLUBLE DRUGS” (priority 2007, published 2009).
In brackets after ≈: the same amount, converted by molar mass.

Conditions: pH 8.7, 25° C.

aqueous solubility: 9.2 µg/mL (≈ 29.1 µM)
Structure (SMILES): O=C1Nc2ccc(Cl)cc2[C@@](C#CC2CC2)(C(F)(F)F)O1 [Efavirenz, (S)-6-chloro-4-(cyclopropylethynyl)-1,4-dihydro-4-(trifluoromethyl)-2H-3,1-benzoxazin-2-one]
